Experimental data from the NIST ThermoML archive (doi:10.1021/je050200w).

Assay: xn = mol fraction of the nth substance listed
Conditions: 101 kPa, Liquid

CCCCCCCCCCO [decan-1-ol] + CCCCCCCCO
Conditions | mass density [kg/m3] | viscosity [mPa·s]
283.15 K, x2 = 0 | 836.6 | 22.06
283.15 K, x2 = 0.0995 | 836.1 | 21.14
283.15 K, x2 = 0.1998 | 835.7 | 20.23
283.15 K, x2 = 0.3007 | 835.3 | 19.39
283.15 K, x2 = 0.4001 | 834.9 | 18.46
283.15 K, x2 = 0.4996 | 834.5 | 17.59
283.15 K, x2 = 0.5988 | 834 | 16.69
283.15 K, x2 = 0.6998 | 833.6 | 15.82
283.15 K, x2 = 0.8001 | 833.1 | 15.11
283.15 K, x2 = 0.9 | 832.8 | 14.2
288.15 K, x2 = 0 | 833.3 | 17.99
288.15 K, x2 = 0.0995 | 832.7 | 17.18
288.15 K, x2 = 0.1998 | 832.3 | 16.53
288.15 K, x2 = 0.3007 | 831.9 | 15.64
288.15 K, x2 = 0.4001 | 831.5 | 15.11
288.15 K, x2 = 0.4996 | 831.1 | 14.23
288.15 K, x2 = 0.5988 | 830.6 | 13.71
288.15 K, x2 = 0.6998 | 830.2 | 13.02
288.15 K, x2 = 0.8001 | 829.7 | 12.25
288.15 K, x2 = 0.9 | 829.4 | 11.75
293.15 K, x2 = 0 | 829.9 | 14.39
293.15 K, x2 = 0.0995 | 829.3 | 13.84
293.15 K, x2 = 0.1998 | 828.9 | 13.31
293.15 K, x2 = 0.3007 | 828.5 | 12.67
293.15 K, x2 = 0.4001 | 828.1 | 12.26
293.15 K, x2 = 0.4996 | 827.7 | 11.59
293.15 K, x2 = 0.5988 | 827.2 | 11.05
293.15 K, x2 = 0.6998 | 826.9 | 10.32
293.15 K, x2 = 0.8001 | 826.3 | 9.75
293.15 K, x2 = 0.9 | 825.9 | 9.008
298.15 K, x2 = 0 | 826.5 | 11.74
298.15 K, x2 = 0.0995 | 825.9 | 11.31
298.15 K, x2 = 0.1998 | 825.5 | 10.94
298.15 K, x2 = 0.3007 | 825.1 | 10.53
298.15 K, x2 = 0.4001 | 824.7 | 10.07
298.15 K, x2 = 0.4996 | 824.3 | 9.596
298.15 K, x2 = 0.5988 | 823.8 | 9.244
298.15 K, x2 = 0.6998 | 823.4 | 8.756
298.15 K, x2 = 0.8001 | 822.8 | 8.308
298.15 K, x2 = 0.9 | 822.3 | 7.812
303.15 K, x2 = 0 | 823 | 9.561
303.15 K, x2 = 0.0995 | 822.5 | 9.231
303.15 K, x2 = 0.1998 | 822.1 | 8.924
303.15 K, x2 = 0.3007 | 821.7 | 8.589
303.15 K, x2 = 0.4001 | 821.3 | 8.213
303.15 K, x2 = 0.4996 | 820.8 | 7.898
303.15 K, x2 = 0.5988 | 820.4 | 7.57
303.15 K, x2 = 0.6998 | 820 | 7.259
303.15 K, x2 = 0.8001 | 819.4 | 6.992
303.15 K, x2 = 0.9 | 818.9 | 6.655
308.15 K, x2 = 0 | 819.6 | 8
308.15 K, x2 = 0.0995 | 819.1 | 7.768
308.15 K, x2 = 0.1998 | 818.7 | 7.492
308.15 K, x2 = 0.3007 | 818.3 | 7.211
308.15 K, x2 = 0.4001 | 817.8 | 6.961
308.15 K, x2 = 0.4996 | 817.4 | 6.672
308.15 K, x2 = 0.5988 | 816.9 | 6.389
308.15 K, x2 = 0.6998 | 816.5 | 6.143
308.15 K, x2 = 0.8001 | 815.9 | 5.851
308.15 K, x2 = 0.9 | 815.5 | 5.653
313.15 K, x2 = 0 | 816.3 | 6.831
313.15 K, x2 = 0.0995 | 815.6 | 6.649
313.15 K, x2 = 0.1998 | 815.2 | 6.408
313.15 K, x2 = 0.3007 | 814.8 | 6.189
313.15 K, x2 = 0.4001 | 814.4 | 5.979
313.15 K, x2 = 0.4996 | 813.9 | 5.711
313.15 K, x2 = 0.5988 | 813.5 | 5.513
313.15 K, x2 = 0.6998 | 813 | 5.287
313.15 K, x2 = 0.8001 | 812.4 | 5.057
313.15 K, x2 = 0.9 | 812 | 4.784
